# In ChEMBL document CHEMBL2331161, “Structure-guided design, synthesis and in vitro evaluation of a series of pyrazole-based fatty acid binding protein (FABP) 3 ligands” (Bioorg Med Chem Lett, 2013):
# Key:
# [1] = molecular target: Fatty acid-binding protein, adipocyte (Homo sapiens, UniProt P15090)
# [2] = molecular target: T1, Fatty acid-binding protein, heart (Homo sapiens, UniProt P05413)
# Description: Inhibition of human FABP3 by 8-anilino-1-naphthalenesulfonic acid based fluorescence displacement assay
# [3] = molecular target: T1, Fatty acid-binding protein, heart; test: Binding affinity to human FABP3 by surface plasmon resonance assay
# Fatty acid-binding protein, adipocyte, sequence (P15090 whole entry): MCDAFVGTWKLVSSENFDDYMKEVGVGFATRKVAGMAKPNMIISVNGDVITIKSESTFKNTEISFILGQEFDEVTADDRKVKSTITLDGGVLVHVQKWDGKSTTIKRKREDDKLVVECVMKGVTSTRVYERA
# T1 sequence (P05413 whole entry): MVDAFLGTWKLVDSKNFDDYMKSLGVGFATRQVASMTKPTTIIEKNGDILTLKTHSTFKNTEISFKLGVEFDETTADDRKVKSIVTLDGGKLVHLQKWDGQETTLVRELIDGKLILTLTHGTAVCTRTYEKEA
SMILES,IC50 ([1]; read-out: IC50) [µM],IC50 [2] [µM],Kd [3] [µM],IC50 [1]
O=C(O)COc1ccccc1-c1cc(-c2ccc(Cl)cc2)n(-c2ccccc2)n1,> 10000,> 10000,–,–
Cc1ccc(-c2cc(-c3ccccc3OCCCCC(=O)O)nn2-c2ccccc2)cc1,259,> 10000,–,–
O=C(O)CCCOc1ccccc1-c1cc(-c2ccccc2)n(-c2ccc(Cl)cc2)n1,4.32,0.733,2.17,–
O=C(O)CCCOc1ccccc1-c1cc(-c2ccc(Br)cc2)n(-c2ccccc2)n1,9.51,224,–,–
O=C(O)CCCOc1ccccc1-c1cc(-c2ccc(Cl)cc2)n(-c2ccccc2)n1,6.13,21,–,–
O=C(O)CCCOc1ccccc1-c1cc(-c2ccccc2)n(-c2ccccc2Cl)n1,4.27,1.16,–,–
O=C(O)CCCOc1ccccc1-c1cc(-c2ccccc2)n(C2CCCC2)n1,16.6,6.03,–,–
COc1ccc(-n2nc(-c3ccccc3OCCCC(=O)O)cc2-c2ccccc2)cc1,13.6,1.65,–,–
O=C(O)CCCCOc1ccccc1-c1cc(-c2ccccc2)n(-c2ccccc2)n1,6.39,> 10000,–,–
O=C(O)COc1cccc(-c2ccccc2-c2cc(-c3ccccc3)n(-c3ccccc3)n2)c1,0.987,> 10000,–,–
O=C(O)CCCOc1ccccc1-c1cc(-c2ccccc2)n(C2CCCCCC2)n1,15.5,6.47,–,–
O=C(O)CCCOc1ccccc1-c1cc(-c2ccccc2)n(-c2ccc(F)cc2)n1,–,1.14,5.26,–
O=C(O)CCCCOc1ccccc1-c1cc(-c2ccc(Br)cc2)n(-c2ccccc2)n1,86,22.3,–,–
O=C(O)CCCOc1ccccc1-c1cc(-c2ccccc2)n(-c2ccccc2)n1,3.02,2.01,16.3,–
O=C(O)CCCOc1ccccc1-c1cc(-c2ccccc2)n(C2CCCCC2)n1,23.5,5.26,–,–
O=C(O)CCCCOc1ccccc1-c1cc(-c2ccc(Cl)cc2)n(-c2ccccc2)n1,74,243,–,–
Cc1ccc(-c2cc(-c3ccccc3OCCCC(=O)O)nn2-c2ccccc2)cc1,5.41,4730,–,–
COc1ccccc1-n1nc(-c2ccccc2OCCCC(=O)O)cc1-c1ccccc1,–,505,–,Not Active
O=C(O)CCCOc1ccccc1-c1cc(-c2ccccc2)n(-c2cccc(Cl)c2)n1,2.5,–,–,–
CC(C)c1ccc(-n2nc(-c3ccccc3OCCCC(=O)O)cc2-c2ccccc2)cc1,10.3,–,–,–
O=C(O)CCCCCCOc1ccccc1-c1cc(-c2ccc(Cl)cc2)n(-c2ccccc2)n1,31,> 10000,–,–
